According to patent US6420367B1, “Pyrimidine derivatives exhibiting antitumor activity” (Shionogo & Co., Ltd., priority 1998, dated 2002):
≈ marks a conversion by molar mass, not a printed value.

Columns and labels:
[1] = test system: DT-R cells (pRRE3-luc-transfected v-ki-ras-transformed NIH3T3 cells); signal derived from Ras oncogene products; assay: Inhibitory effect against cellular signaling derived from Ras oncogene products: luciferase reporter, dissociation of DT-R from DT-C activity (MAC); type: cell-based, mouse; conditions: minimal tested concentration at which luciferase activities of DT-C cells and DT-R cells dissociated
Method in brief: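 Value is a minimal active concentration: lowest dose where Ras-responsive reporter (DT-R) luciferase diverges from SV40-minimal-promoter control (DT-C). Both transfected v-Ki-ras NIH3T3 lines received 3-fold serial dilutions for 24 h at 37 °C in 10% FCS medium before lysis and luminometry.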

[2] = test system: DT-C cells (pGV-P-transfected v-ki-ras-transformed NIH3T3 cells); assay: Luciferase activity in control DT-C cells (IC50-C): non-specific transcription-inhibitory effect or cytotoxicity; type: cell-based, mouse; conditions: tested concentration nearest to 50% inhibition in DT-C cells; index of non-specific transcription inhibition or cytotoxicity
Text: Test Example 1 Inhibitory Effect Against Cellular Signaling Derived From Ras Oncogene Products
1) Establishment of Cell Lines Used in Assay
Based on the reporter plasmid (pGV-P (Toyo Ink, Japan)), in which luciferase gene was ligated to SV40-derived minimal promoter, we constructed a plasmid designated pRRE3-luc by inserting 3 copies of chemically synthesized oligonucleotides (Sequence: CAGGATATGACTCT, derived from mouse NVL-3 (M. A. Reddy et al.(1992)Mol. Endocrinol., 6, 1051)) into upstream of the promoter. v-ki-ras-transformed NIH3T3 cells (DT cells, provided by Dr. Makoto Noda (Kyoto Univ., School of medicine)) were transfected with this plasmid by liposome-mediated transfection and transfected cell lines stably incorporated and maintained each plasmid were obtained. We named pGV-P and pRRE3-transfected cell line as DT-C and DT-R, respectively and used in the assay described below.
2) Preparation of Samples
i) All the cell lines were cultured in Dulbecco's Modified Essential Medium (DMEM: 10% Fetal Calf Serum(FCS: Hyclone, USA)) including […] kanamycin (Meiji Seika, Japan) in humidified incubator under condition of 5% CO2 at 37° C.
ii) DT-C and DT-R cells were seeded at 2500 cells/well into flat-bottom 96 well multiplate (Sumitomo bakelite) and incubated for 24 hours.
iii) Test compounds were prepared as 1 mg/ml DMSO solution.
iv) The solution of test compounds were added to the culture. Tested compounds are used at the concentration from […] to 0.51 ng/ml with by 3-fold dilution.
v) After 24 hours, the culture supernatant was completely aspirated and […] of cell-lysing solution (PGC-50 (Toyo Ink, Japan)) was added before cells were dried up. In order to the cells were lysed completely, multiwell plates were left at room temperature for 10 to 30 min. The plates were wrapped up and stored at −20° C. till the day of measurement.
3) Measurement of Samples
i) Melt the samples by putting 96 well multiplate at 37° C. and add 90 μl/well 25 mM Tris (pH 7.5).
ii) Transfer 50 μl of the sample (110 μl) to the 96 well microplate for measurement (Microlite 1 (Dynatech)).
iii) Measure the samples by the luminometer, LUMINOUS CT9000D (Dia-Yatron, Japan). We used Pickagene luminescence kit PGL2000 or LT2.0 (Toyo Ink, Japan) as substrates for luminescence measurement (50 μl/well).
4) Judgment of the Results
i) The luciferase activity of DT-C cells and DT-R cells were plotted in the graph where the relative activity and the compound concentration were expressed as Y-axis and X-axis, respectively. We judged by the degree of dissociation between the activities of DT-C cells and DT-R cells as an index.
ii) Concretely, efficacy of the compound was expressed by two values described below.
b) Among the points of concentration tested, the concentration which is the nearest to 50% inhibition concentration at DT-C cells (IC50-C), was shown as an index of non-specific transcription-inhibitory effect or of cytotoxicity. In case of positive compounds, 50% inhibition concentration above the area of active concentration in DT-C cells was expressed as IC50-C.

human colon cancer HT29 = assay: In vitro cell growth inhibition test, MTT assay; type: cell-based; conditions: MTT assay 4 days after compound addition
Method in brief: (§1)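 Panel of human carcinoma lines, including PANC-1, assessed in vitro; inhibition of cell growth quantified via MTT.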

[3] = test system: human lung adenocarcinoma A549; assay: In vitro cell growth inhibition test, MTT assay; type: cell-based; conditions: MTT assay 4 days after compound addition
Method in brief: as §1

[4] = test system: human pancreas cancer PANC-1; assay: In vitro cell growth inhibition test, MTT assay; type: cell-based; conditions: MTT assay 4 days after compound addition
Method in brief: as §1

[5] = test system: human squamous lung cancer Ma44; assay: In vitro cell growth inhibition test, MTT assay; type: cell-based; conditions: MTT assay 4 days after compound addition
Method in brief: as §1

[6] = test system: human squamous lung cancer RERF-RC-AI; assay: In vitro cell growth inhibition test, MTT assay; type: cell-based; conditions: MTT assay 4 days after compound addition
Method in brief: as §1

SMILES | MAC (Minimal Active Concentration) [1] [µg/mL] | IC50-C [2] [µg/mL] | IC50, HT29 (human colon cancer HT29) [µg/mL] | IC50, A549 [3] [µg/mL] | IC50, PANC-1 [4] [µg/mL] | IC50, Ma44 [5] [µg/mL] | IC50, RERF-LC-AI [6] [µg/mL]
CCNC(=Nc1nc(C)ncc1CSc1nnc(-c2ccc(Br)cc2)o1)NCC [Compound A-108] | 0.123 | >10 | 0.022 (≈ 0.0462 µM) | 0.027 (≈ 0.0567 µM) | 0.027 (≈ 0.0567 µM) | 0.029 (≈ 0.0609 µM) | 
CCNC(=Nc1ncncc1CSc1nnc(-c2ccc(CN)cc2)o1)NCC [Compound A-119] | 0.37 | >10 | 0.1 (≈ 0.242 µM) | 1.2 (≈ 2.91 µM) | 0.068 (≈ 0.165 µM) | 0.2 (≈ 0.485 µM) | 0.023 (≈ 0.0558 µM)
CCNC(=Nc1ncncc1CSc1nnc(-c2ccc([N+](=O)[O-])cc2)o1)NC(C)C [Compound A-121] | <0.000508 | >10 | 0.02 (≈ 0.0452 µM) | 0.058 (≈ 0.131 µM) | 0.02 (≈ 0.0452 µM) | 0.02 (≈ 0.0452 µM) | 0.02 (≈ 0.0452 µM)
CCCNC(=Nc1nc(C)ncc1CSc1nnc(-c2ccc([N+](=O)[O-])cc2)o1)NCCC [Compound A-127] | 0.0137 | 3.33 (≈ 7.08 µM) | 0.018 (≈ 0.0383 µM) | 0.028 (≈ 0.0595 µM) | 0.017 (≈ 0.0361 µM) | 0.017 (≈ 0.0361 µM) | 0.015 (≈ 0.0319 µM)
CCCCNC(=Nc1nc(C)ncc1CSc1nnc(-c2ccc([N+](=O)[O-])cc2)o1)NCCCC [Compound A-128] | 0.0412 | 3.33 (≈ 6.68 µM) | 0.042 (≈ 0.0842 µM) | 0.047 (≈ 0.0943 µM) | 0.026 (≈ 0.0521 µM) | 0.044 (≈ 0.0882 µM) | 0.036 (≈ 0.0722 µM)
CCNC(=Nc1nc(C(C)C)ncc1CSc1nnc(-c2ccc([N+](=O)[O-])cc2)o1)NCC [Compound A-130] | 0.123 | 3.33 (≈ 7.08 µM) | 0.029 (≈ 0.0616 µM) | 0.074 (≈ 0.157 µM) | 0.018 (≈ 0.0383 µM) | 0.039 (≈ 0.0829 µM) | 0.023 (≈ 0.0489 µM)
CCCNC(N)=Nc1nc(C)ncc1CSc1nnc(-c2ccc(N)cc2)o1 [Compound A-157] | 0.0137 | >10 | 0.008 (≈ 0.0201 µM) |  | 0.015 (≈ 0.0376 µM) | 0.044 (≈ 0.11 µM) | 0.005 (≈ 0.0125 µM)
CCCNC(N)=Nc1nc(C)ncc1CSc1nnc(-c2ccc([N+](=O)[O-])cc2)o1 [Compound A-158] | 0.0412 | >10 | 0.025 (≈ 0.0583 µM) |  | 0.03 (≈ 0.07 µM) | 0.032 (≈ 0.0747 µM) | 0.007 (≈ 0.0163 µM)
